Results on two compounds are retold here after paper PMC5796108, “Effects of Acanthopanax senticosus on Brain Injury Induced by Simulated Spatial Radiation in Mouse Model Based on Pharmacokinetics and Comparative Proteomics” (International Journal of Molecular Sciences, 2018).

Like-named read-outs stand apart in the source and are kept apart here.

A short description of the data set: Pharmacokinetics of syringin and eleutheroside E in mice's serum after oral AS extract (HPLC, PKsolver). The class given is in vivo, Kun-Ming mice. The conditions noted are these: oral AS extract 235.7 mg/kg; for MRT inf: read-out: MRT(0→∞). On the procedure: The radiation lasted 30 min. […] The serum was preserved at −20 °C standby.
The content of syringin and eleutheroside E in the samples for each time points was detected by HPLC. An Agilent 1100 series liquid chromatograph (Agilent Technologies, Santa Clara, CA, USA), equipped with a quaternary gradient pump and a UV detector was used. A HPLC method was developed using a reversed-phase C18 column (Agilent-TC, 250 mm × 4.6 mm, 5 μm i.d.) with the column temperature at 30 °C. […] The retention times are 6.041 min and 8.500 min for Syringin and eleutheroside E respectively. Contents of syringin and eleutheroside E were expressed in each case as nanograms of syringin and eleutheroside E per milliliter of mice serum.

Setting [1] is: Radiation-AS-Treatment (60Co-γ, 4 Gy).
[2] abbreviates: male, Kun-Ming, mouse, po, 235.7 mg/kg, Normal-AS-Treatment.
[3] abbreviates: male, Kun-Ming, mouse, po, 235.7 mg/kg, Radiation-AS-Treatment (60Co-γ, 4 Gy).

On to `COc1cc([C@H]2OC[C@@H]3[C@@H]2CO[C@H]3c2cc(OC)c(O[C@@H]3O[C@H](CO)[C@@H](O)[C@H](O)[C@H]3O)c(OC)c2)cc(OC)c1O[C@@H]1O[C@H](CO)[C@@H](O)[C@H](O)[C@H]1O` [Eleutheroside E], for which, under “Normal-AS-Treatment”, the “AUC(0→∞)” value is given as 9.93 × 10^3 ± 1.81 × 10^3 ng⋅h⋅mL^−1, the CL was 8.30 × 10^−2 ± 7.32 × 10^−3 L⋅h^−1⋅g^−1, the Cmax is given as 2.07 × 10^3 ± 6.61 × 10^2 ng⋅mL^−1 and the “MRT(0→∞)” value turned out to be 14.8 ± 0.597 h. Also, for the setting “Normal-AS-Treatment”, the Tmax stood at 0.5 ± 0.192 h and the t1/2 is 17.2 ± 0.722 h. In addition, under setting [1], the “AUC(0→∞)” value is 1.20 × 10^4 ± 3.63 × 10^3 ng⋅h⋅mL^−1, the CL is 6.89 × 10^−2 ± 7.17 × 10^−3 L⋅h^−1⋅g^−1, the Cmax is reported as 2.11 × 10^3 ± 5.93 × 10^2 ng⋅mL^−1 and the “MRT(0→∞)” value is 21.1 ± 0.701 h. Moreover, under setting [1], the Tmax was 0.5 ± 0.321 h and the t1/2 is 2.51 × 10^1 ± 5.56 × 10^0 h.

Turning to `COc1cc(/C=C/CO)cc(OC)c1O[C@@H]1O[C@H](CO)[C@@H](O)[C@H](O)[C@H]1O` [Syringin], the CL is 2.91 × 10^0 ± 5.65 × 10^−1 L⋅h^−1⋅g^−1 (Normal-AS-Treatment) and 1.54 × 10^0 ± 1.86 × 10^−1 L⋅h^−1⋅g^−1 under setting [1]. The Vd reads like this: (Normal-AS-Treatment) 2.72 × 10^1 ± 8.73 × 10^−1 L⋅g^−1; under setting [1], 2.17 × 10^1 ± 9.19 × 10^−1 L⋅g^−1. The Tmax came out at 0.5 ± 0.237 h under setting [1] and 0.5 h (male, Kun-Ming, mouse, Normal-AS-Treatment, read-out: Tmax). Also, the AUC(0-inf) is, setting by setting: under setting [2], 283 ng·h/mL; under setting [3], 534 ng·h/mL. The half-life is 6.47 h under setting [2] and 9.72 h under setting [3]. For the same compound, the Cmax by setting is: (male, Kun-Ming, mouse, po, 235.7 mg/kg, Normal-AS-Treatment, read-out: Cmax) 170 ng/mL; (male, Kun-Ming, mouse, po, 235.7 mg/kg, Radiation-AS-Treatment (60Co-γ, 4 Gy), read-out: Cmax) 212 ng/mL. The MRT inf runs as follows: under setting [2], 4.58 h; under setting [3], 5.95 h.

What is called Cmax is the highest concentration seen after dosing. In general, Tmax refers to the time from dosing to the highest level. In general, AUC(0-inf) refers to total exposure, with the tail of the curve extrapolated. High values mean more exposure, low ones less exposure. Broadly, the half-life is how long it takes for the measured level to halve. Read a low half-life as fast loss.
